Read-outs that look alike come from different tables or passages of the source.
Tests used:
[1] = Example 1 single-dose plasma pharmacokinetics after intranasal administration; assay type: in vivo, human; settings: single intranasal 160 mg cocaine HCl; for AUC(0-inf) / AUC(0-t) / Cmax / MRT / Tmax / Vd/F / half-life: human, inhaled or intranasal, 160 mg
Method: Single-dose plasma and urinary pharmacokinetics of the pharmaceutical composition following intranasal administration was characterized in this study. This was a single-dose study in 30 healthy volunteers. The objective of the study was to examine the systemic pharmacokinetics of the pharmaceutical composition following acute, topical intranasal administration.
A single dose of a pharmaceutical composition was administered to both nostrils using cottonoid pledgets. […] Each pledget absorbed approximately 1 mL of pharmaceutical composition (i.e., 40 mg cocaine hydrochloride). Two soaked pledgets were placed into each nasal cavity of the subject and against the anterior septum for 20 minutes; thus, a total dose of 160 mg of cocaine hydrochloride was administered.
Blood samples were collected pre-dose (30 minutes before pledget insertion), and 7.5, 15, 20, 30, 45, 60, 75, 90, and 105 minutes and 2, 3, 4, 6, 8, 10, and 12 hours from the start of application of the pharmaceutical composition.
The effect of gender on Cmax, Tmax, AUClast, AUCinf, and t1/2 was determined. The effects of age, body weight, and BMI on AUClast were determined.

[2] = Example 2 urinary pharmacokinetics, normal renal function vs severe renal impairment; settings: both, human, urine, inhaled or intranasal, 160 mg, Renal Clearance, CLr (geometric mean), single intranasal 160 mg cocaine HCl
Method: For the urine analysis of cocaine, BE, and EME, individual urinary recoveries for each analyte were determined over each collection interval as the product of the urine concentration times the urine volume. The total recoveries were determined as the sum of the recoveries over all the intervals. Total urinary recoveries were also expressed as the percentage of the administered dose, after correction for the molecular weight of each analyte. The renal clearances of cocaine, BE, and EME were determined as the urinary recovery (in μg) divided by the plasma AUC over the same time interval (the longest period for which both plasma and urine measurements were available).
Urine was collected prior to dosing and from 0-2, 2-4, 4-8, 8-12, 12-24, and 24-32 hours after the beginning of dose application. […] Testing methods used were consistent with those used by inVentiv Health Clinical Lab, Inc., Miami, Fla., U.S.A. Urinary pharmacokinetic parameters included total urinary recovery (μg), urinary recovery as a percentage of dose, and CLr.

For COC(=O)[C@H]1[C@@H](OC(=O)c2ccccc2)C[C@@H]2CC[C@H]1N2C [Cocaine, cocaine, reference compound], the AUC(0-inf) ([1]; both sexes, plasma, healthy subjects, plasma, read-out: AUCinf (Geometric Mean)) was 50.3 ng·h/mL, the AUC(0-inf) ([1]; both sexes, plasma, healthy subjects, plasma, read-out: AUCinf (Mean)) was 54.9 ng·h/mL and the AUC(0-t) ([1]; both sexes, plasma, healthy subjects, plasma, read-out: AUClast (Geometric Mean)) was 34.2 ng·h/mL. It also gave an AUC(0-t) ([1]; both sexes, plasma, healthy subjects, plasma, read-out: AUClast (Mean)) of 38.4 ng·h/mL, a Cmax ([1]; both sexes, plasma, healthy subjects, plasma, read-out: Cmax (Geometric Mean)) of 32.8 ng/mL and an MRT ([1]; both sexes, plasma, healthy subjects, plasma, read-out: MRT (Geometric Mean)) of 90 min. It also gave an MRT ([1]; both sexes, plasma, healthy subjects, plasma, read-out: MRT (Mean)) of 93.6 min, a Tmax ([1]; both sexes, plasma, healthy subjects, plasma, read-out: Tmax (Geometric Mean)) of 22.4 min and a Vd/F ([1]; both sexes, plasma, healthy subjects, plasma, read-out: Vd/F (Geometric Mean)) of 3680 L. For the same compound, the Vd/F ([1]; both sexes, plasma, healthy subjects, plasma, read-out: Vd/F (Mean)) was 3880 L, the AUC(0-inf) ([1]; female, plasma, Female healthy subjects, plasma, read-out: AUCinf (Geometric mean)) was 53.9 ng·h/mL and the AUC(0-inf) ([1]; female, plasma, Female healthy subjects, plasma, read-out: AUCinf (Mean)) was 60.6 ng·h/mL. The AUC(0-inf) ([1]; female, plasma, Female healthy subjects, plasma, read-out: AUCinf (Median)) was 57.6 ng·h/mL, the AUC(0-t) ([1]; female, plasma, Female healthy subjects, plasma, read-out: AUClast (Geometric mean)) was 39.4 ng·h/mL and the AUC(0-t) ([1]; female, plasma, Female healthy subjects, plasma, read-out: AUClast (Mean)) was 44.4 ng·h/mL. For the same compound, the AUC(0-t) ([1]; female, plasma, Female healthy subjects, plasma, read-out: AUClast (Median)) was 32.4 ng·h/mL, the Cmax ([1]; female, plasma, Female healthy subjects, plasma, read-out: Cmax (Geometric mean)) was 35.5 ng/mL and the Cmax ([1]; female, plasma, Female healthy subjects, plasma, read-out: Cmax (Mean)) was 39 ng/mL. The Cmax ([1]; female, plasma, Female healthy subjects, plasma, read-out: Cmax (Median)) was 37 ng/mL, the Tmax ([1]; female, plasma, Female healthy subjects, plasma, read-out: Tmax (Geometric mean)) was 23.1 min and the Tmax ([1]; female, plasma, Female healthy subjects, plasma, read-out: Tmax (Mean)) was 26.9 min. The Tmax ([1]; female, plasma, Female healthy subjects, plasma, read-out: Tmax (Median)) was 20 min, the half-life ([1]; female, plasma, Female healthy subjects, plasma, read-out: t1/2 (Geometric mean) (converted)) was 56.5 min and the half-life ([1]; female, plasma, Female healthy subjects, plasma, read-out: t1/2 (Mean) (converted)) was 60.6 min. The half-life ([1]; female, plasma, Female healthy subjects, plasma, read-out: t1/2 (Median) (converted)) was 60.6 min, the “fraction of the 160 mg dose absorbed intact during the 20-minute exposure period (rough estimate, CL/F vs intravenous CL)” value ([1]; healthy subjects) was roughly 4% and the “% EXTRAP (Geometric Mean)” value ([1]; healthy subjects, plasma) was 17.7%. The “% EXTRAP (Mean)” value ([1]; healthy subjects, plasma) was 18.7%, the “CL/F (Mean)” value ([1]; healthy subjects, plasma) was 3,096 L/h and the “Clast (Geometric mean)” value ([1]; healthy subjects, plasma) was 7.05 ng/mL. The “Clast (Mean)” value ([1]; healthy subjects, plasma) was 7.18 ng/mL, the “Tlast (Geometric mean)” value ([1]; healthy subjects, plasma) was 2.31 h and the “Tlast (Mean)” value ([1]; healthy subjects, plasma) was 2.40 h. For the same compound, the “Tmax (Mean)” value ([1]; healthy subjects, plasma) was 26 min, the “t1/2 (Geometric mean)” value ([1]; healthy subjects, plasma) was 58.5 min and the Cmax ([1]; plasma, healthy subjects, plasma, read-out: Cmax (Mean)) was 37 ± 17.3 ng/mL. The Cmax ([1]; plasma, healthy subjects, plasma, read-out: Cmax (range across subjects)) was 7.93 to 70.3 ng/mL, the Tmax ([1]; plasma, healthy subjects, plasma, read-out: Tmax (Mean)) was 25.8 ± 20.4 min and the half-life ([1]; plasma, healthy subjects, plasma, read-out: t1/2 (Mean) (converted)) was 62.4 ± 21 min. For the same compound, the AUC(0-inf) ([1]; male, plasma, Male healthy subjects, plasma, read-out: AUCinf (Geometric mean)) was 45.7 ng·h/mL, the AUC(0-inf) ([1]; male, plasma, Male healthy subjects, plasma, read-out: AUCinf (Mean)) was 47.2 ng·h/mL and the AUC(0-inf) ([1]; male, plasma, Male healthy subjects, plasma, read-out: AUCinf (Median)) was 46.2 ng·h/mL. For the same compound, the AUC(0-t) ([1]; male, plasma, Male healthy subjects, plasma, read-out: AUClast (Geometric mean)) was 29.1 ng·h/mL, the AUC(0-t) ([1]; male, plasma, Male healthy subjects, plasma, read-out: AUClast (Mean)) was 31.5 ng·h/mL and the AUC(0-t) ([1]; male, plasma, Male healthy subjects, plasma, read-out: AUClast (Median)) was 28.5 ng·h/mL. For the same compound, the Cmax ([1]; male, plasma, Male healthy subjects, plasma, read-out: Cmax (Geometric mean)) was 30 ng/mL, the Cmax ([1]; male, plasma, Male healthy subjects, plasma, read-out: Cmax (Mean)) was 34.6 ng/mL and the Cmax ([1]; male, plasma, Male healthy subjects, plasma, read-out: Cmax (Median)) was 31.6 ng/mL. It also gave a Tmax ([1]; male, plasma, Male healthy subjects, plasma, read-out: Tmax (Geometric mean)) of 21.7 min, a Tmax ([1]; male, plasma, Male healthy subjects, plasma, read-out: Tmax (Mean)) of 25 min and a Tmax ([1]; male, plasma, Male healthy subjects, plasma, read-out: Tmax (Median)) of 20 min. It also gave a half-life ([1]; male, plasma, Male healthy subjects, plasma, read-out: t1/2 (Geometric mean) (converted)) of 60.6 min, a half-life ([1]; male, plasma, Male healthy subjects, plasma, read-out: t1/2 (Mean) (converted)) of 63.6 min and a half-life ([1]; male, plasma, Male healthy subjects, plasma, read-out: t1/2 (Median) (converted)) of 58 min. For the same compound, the CL renal ([2]; normal renal function) was 26.8 mL/min and the CL renal ([2]; severe renal impairment) was 17.3 mL/min.

Source: patent US10413505B1, “Pharmaceutical compositions and methods of using the same” (priority 2017, dated 2019)
